Experimental data published in ChEMBL document CHEMBL1201862, “PubChem BioAssay data set” (2004).
Calls of active or inactive are those of the source.

How the values were obtained:
[1] = Luminescence Cell-Based Dose Response HTS to Identify Inhibitors of 5'UTR Stem-Loop Driven Prion Protein mRNA Translation in H4 Neuroglioblastoma Cells. [Related pubchem assays: 1827 (Project Summary), 1813 (Primary HTS)]; assay type: functional
[2] = test system: BJ; assay: BJ-TERT-LT-ST fibroblast viability loss – cell-based, RAS-independent, luminescence, dose response (AID 1935); assay type: functional; conditions: Homo sapiens;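 also: BJ fibroblasts immortalized with TERT plus LT and ST oncogenes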
[3] = luciferase reporter signal suppression in cells – H4 neuroglioma cells, luminescence, dose response (AID 1990); assay type: functional, cell-based
[4] = alpha-synuclein stem-loop luciferase translation blockers – H4 neuroglioma cells, luminescence, confirmation (AID 1988); assay type: functional, cell-based
[5] = DRD fibroblast viability loss – cell-based, non-viral oncogenic, luminescence, dose response (AID 1934); assay type: functional; conditions: Homo sapiens
[6] = test system: BJ; assay: BJ-TERT fibroblast viability loss – cell-based, RAS-independent, luminescence, dose response (AID 1933); assay type: functional; conditions: Homo sapiens
[7] = test system: BJ; assay: cells; assay type: functional, cell-based; conditions: Homo sapiens
[8] = cells; assay type: functional, cell-based
[9] = cells; assay type: functional, cell-based; remark: listed apart in the source
[10] = biological target: T1, Protein skinhead-1 (Caenorhabditis elegans, UniProt P34707); assay type: functional
T1 sequence (P34707 whole entry): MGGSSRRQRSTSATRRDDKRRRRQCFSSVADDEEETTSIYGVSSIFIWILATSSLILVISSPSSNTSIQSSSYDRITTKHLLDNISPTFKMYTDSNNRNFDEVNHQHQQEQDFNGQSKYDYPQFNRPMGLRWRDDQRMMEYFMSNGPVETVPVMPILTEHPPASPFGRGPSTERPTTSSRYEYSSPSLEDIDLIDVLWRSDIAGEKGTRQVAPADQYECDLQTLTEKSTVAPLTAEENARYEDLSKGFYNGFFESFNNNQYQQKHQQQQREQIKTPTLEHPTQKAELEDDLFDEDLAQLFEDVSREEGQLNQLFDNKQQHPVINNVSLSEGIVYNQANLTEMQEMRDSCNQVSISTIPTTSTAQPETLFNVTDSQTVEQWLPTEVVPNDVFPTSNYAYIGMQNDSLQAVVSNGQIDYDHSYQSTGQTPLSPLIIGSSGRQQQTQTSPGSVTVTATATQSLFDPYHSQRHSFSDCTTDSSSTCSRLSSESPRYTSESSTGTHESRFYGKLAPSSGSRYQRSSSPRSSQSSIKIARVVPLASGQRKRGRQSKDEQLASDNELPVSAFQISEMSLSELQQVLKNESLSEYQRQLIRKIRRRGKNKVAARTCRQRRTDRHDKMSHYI

[11] = NIH3T3 cell viability loss – ATP luminescence, mouse fibroblasts, counter-screen, dose response (AID 2010); assay type: functional, cell-based;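 also: cells exposed to compound for about 90 hours before reading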
[12] = Trypanosoma cruzi growth suppression in host cells – NIH3T3 host cells, beta-gal luminescence, confirmation (AID 2044); assay type: functional, cell-based;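 also: intracellular parasites grown in NIH/3T3 mouse fibroblasts as host cells; luminescent beta-galactosidase reporter signal from transgenic T. cruzi replicating inside host cells; inhibitors lower the luminescence signal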
[13] = Luminescence Cell-Based Dose Retest to Confirm Inhibitors of Cancer Stem Cells. [Related pubchem assays (depositor defined):AID2717, AID2721]; assay type: functional; conditions: Homo sapiens
[14] = test system: Streptococcus; assay: GAS UMAA2166 growth inhibition – luminescence, BacTiterGlo, counter-screen for streptokinase expression inhibitor project, dose response (AID 1915); assay type: functional, organism-based;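 also: potency for reduction of bacterial viability or growth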
[15] = biological target: T2, Streptokinase A (Streptococcus pyogenes serotype M1, UniProt P10520); assay: viability-normalized secreted streptokinase activity reduction – plasminogen activation absorbance, OD405, dose response (AID 1914); assay type: functional, Streptococcus pyogenes M1 GAS;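 also: secreted streptokinase activity via plasminogen activation per viability signal from cell pellet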
T2 sequence (P10520 whole entry): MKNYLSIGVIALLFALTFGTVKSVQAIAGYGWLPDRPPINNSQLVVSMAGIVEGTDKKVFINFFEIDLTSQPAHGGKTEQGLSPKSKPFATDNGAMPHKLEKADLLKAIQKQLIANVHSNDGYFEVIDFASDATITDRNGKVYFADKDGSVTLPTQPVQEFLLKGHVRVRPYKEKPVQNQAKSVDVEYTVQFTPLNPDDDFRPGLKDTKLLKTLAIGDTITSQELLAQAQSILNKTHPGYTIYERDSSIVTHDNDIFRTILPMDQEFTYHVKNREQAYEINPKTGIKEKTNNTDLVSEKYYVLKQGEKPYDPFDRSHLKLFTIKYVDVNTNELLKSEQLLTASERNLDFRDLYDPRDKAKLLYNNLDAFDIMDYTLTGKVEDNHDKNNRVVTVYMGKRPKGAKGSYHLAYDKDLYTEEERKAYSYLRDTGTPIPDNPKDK

[16] = test system: Streptococcus sp. 'group A'; assay: Streptococcus pyogenes SK(-)GAS viability under kanamycin – luminescence, BacTiterGlo, confirmation, counter-screen for streptokinase expression inhibitor project, dose response (AID 1900); assay type: functional, organism-based
[17] = biological target: Cytochrome P450 2C19 (Homo sapiens, UniProt P33261); assay: Cytochrome panel assay with activity outcomes. Panel member name: p450-cyp2c19 Compounds with AC50 equal or less than 10 uM are considered active; assay type: functional; conditions: read-out: AC50
[18] = test system: H4; assay: Luminescence Cell-Based Dose Response HTS to Identify Activators of 5'UTR Stem-Loop Driven Prion Protein mRNA Translation in H4 Neuroglioblastoma Cells. [Related pubchem assays: 1829 (Project Summary), 1814 (Primary HTS)]; assay type: functional; conditions: Homo sapiens
[19] = Luminescence Cell-Based Dose Response HTS to Identify Activators of Luciferase Translation or Activity in H4 […] Cells. [Related pubchem assays: 1829 (Project Summary), 1814 (Primary HTS)]; assay type: functional
[20] = Luminescence Cell-Based Dose Confirmation HTS to Identify Activators of 5'UTR Stem-Loop Driven Alpha-Synuclein mRNA Translation in H4 Neuroglioblastoma Cells. [Related pubchem assays: 1829 (Project Summary), 1814 (Primary HTS)]; assay type: functional
[21] = biological target: Luciferin 4-monooxygenase (Photinus pyralis, UniProt P08659); assay: inhibition of purified Photinus pyralis luciferase – biochemical, luminescence, dose response (AID 1891)
[22] = Luminescence Cell-Based Dose Confirmation HTS to Identify Inhibitors of Platelet Dense Granule Release. [Related pubchem assays: 1663 (Primary HTS), 1678 (Summary of Project)]; assay type: functional
[23] = biological target: Cytochrome P450 2D6 (Homo sapiens, UniProt P10635);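 also: CYP2D6 member of a cytochrome P450 panel assay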
[24] = biological target: T3, RNA-binding protein pos-1 (Caenorhabditis elegans, UniProt G5EF15); assay: disruptors of C. elegans POS-1 RNA interaction – biochemical, fluorescence polarization, dose response (AID 1964);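 also: purified POS-1 fused to maltose binding protein made in E. coli; potency of compounds blocking POS-1 binding to fluorescent RNA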
T3 sequence (G5EF15 whole entry): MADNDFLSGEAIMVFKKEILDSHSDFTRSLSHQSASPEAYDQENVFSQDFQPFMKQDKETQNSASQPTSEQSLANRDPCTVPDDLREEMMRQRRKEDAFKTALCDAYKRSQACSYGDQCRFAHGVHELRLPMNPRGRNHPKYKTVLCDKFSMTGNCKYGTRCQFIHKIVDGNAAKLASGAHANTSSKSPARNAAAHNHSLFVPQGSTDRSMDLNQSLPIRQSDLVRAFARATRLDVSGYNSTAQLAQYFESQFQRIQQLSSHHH

[25] = biological target: T4, Zinc finger protein mex-5 (Caenorhabditis elegans, UniProt Q9XUB2); assay: potency of MEX-5 RNA-binding blockers – biochemical, C. elegans, fluorescence polarization, dose response (AID 1960)
T4 sequence (Q9XUB2 whole entry): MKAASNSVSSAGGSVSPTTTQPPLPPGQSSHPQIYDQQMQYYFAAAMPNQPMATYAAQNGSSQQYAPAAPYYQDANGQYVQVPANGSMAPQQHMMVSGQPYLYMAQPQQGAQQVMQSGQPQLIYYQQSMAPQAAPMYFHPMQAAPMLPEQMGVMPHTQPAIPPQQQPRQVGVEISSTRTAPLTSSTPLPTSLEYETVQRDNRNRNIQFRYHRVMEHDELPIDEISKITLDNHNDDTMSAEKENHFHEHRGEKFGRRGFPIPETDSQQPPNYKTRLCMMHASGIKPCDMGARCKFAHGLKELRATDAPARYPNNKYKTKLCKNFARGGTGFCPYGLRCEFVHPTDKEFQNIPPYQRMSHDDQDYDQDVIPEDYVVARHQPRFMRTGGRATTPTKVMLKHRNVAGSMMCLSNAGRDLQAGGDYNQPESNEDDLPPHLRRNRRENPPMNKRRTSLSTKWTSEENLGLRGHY

[26] = test system: INS1; assay: INS-1E survival protection against cytokine death – cell-based, luminescence, retest, dose response (AID 449756); assay type: functional; conditions: Rattus norvegicus;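 also: cell death triggered by IL-1 beta plus TNF-alpha plus IFN-gamma mixture; protective hits raise ATP signal compared with cytokine alone wells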
[27] = test system: H9c2; assay: cells; assay type: functional, cell-based; conditions: Rattus norvegicus, H9c2, Myocardium;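 also: confirmatory concentration-response retest of ultra-high-throughput screening hits for modulation of myocardial damage; cell death induced by hydrogen peroxide oxidative stress; compound pretreatment for 60 min then peroxide exposure for 2 h; potency is for protecting the cells against peroxide damage rather than for killing them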
[28] = biological target: Paired box protein Pax-8 (Homo sapiens, UniProt Q06710); assay: PAX8 transcriptional activity inhibition in RMG-I – RMG-I cells, luciferase, cherry-pick, dose response (AID 687027); assay type: functional, cell-based;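 also: luciferase reporter driven by Pax8 target thyroperoxidase promoter measured by SteadyGlo luminescence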
Sequence of Paired box protein Pax-8 (Q06710 whole entry): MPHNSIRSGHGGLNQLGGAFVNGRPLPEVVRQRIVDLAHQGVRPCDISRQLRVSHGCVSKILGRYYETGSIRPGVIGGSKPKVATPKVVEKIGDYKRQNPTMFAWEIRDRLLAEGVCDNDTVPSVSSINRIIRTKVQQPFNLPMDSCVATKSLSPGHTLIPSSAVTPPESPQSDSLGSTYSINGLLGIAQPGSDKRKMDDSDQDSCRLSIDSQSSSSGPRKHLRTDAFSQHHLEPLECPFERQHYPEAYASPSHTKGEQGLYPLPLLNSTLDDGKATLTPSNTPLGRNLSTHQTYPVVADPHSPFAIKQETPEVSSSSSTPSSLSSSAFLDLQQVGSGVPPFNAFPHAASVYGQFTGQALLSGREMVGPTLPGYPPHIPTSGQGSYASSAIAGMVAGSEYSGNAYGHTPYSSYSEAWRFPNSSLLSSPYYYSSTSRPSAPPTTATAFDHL

Sequence of Cytochrome P450 2D6 (P10635 whole entry, the tested form may be a part): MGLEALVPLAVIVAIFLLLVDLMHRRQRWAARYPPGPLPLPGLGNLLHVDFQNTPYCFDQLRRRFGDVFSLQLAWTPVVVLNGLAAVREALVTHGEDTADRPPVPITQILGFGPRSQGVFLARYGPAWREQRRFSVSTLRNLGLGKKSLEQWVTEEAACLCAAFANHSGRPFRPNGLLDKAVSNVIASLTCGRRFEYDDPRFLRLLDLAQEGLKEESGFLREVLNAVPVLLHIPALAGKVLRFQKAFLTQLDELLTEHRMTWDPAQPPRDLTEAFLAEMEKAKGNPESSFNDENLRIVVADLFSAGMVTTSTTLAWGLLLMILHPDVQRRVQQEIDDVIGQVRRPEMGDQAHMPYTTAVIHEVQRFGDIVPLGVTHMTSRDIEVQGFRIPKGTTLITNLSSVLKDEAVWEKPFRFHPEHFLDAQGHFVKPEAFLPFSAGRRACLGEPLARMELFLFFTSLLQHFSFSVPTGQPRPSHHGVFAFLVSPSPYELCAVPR
Sequence of Luciferin 4-monooxygenase (P08659 whole entry): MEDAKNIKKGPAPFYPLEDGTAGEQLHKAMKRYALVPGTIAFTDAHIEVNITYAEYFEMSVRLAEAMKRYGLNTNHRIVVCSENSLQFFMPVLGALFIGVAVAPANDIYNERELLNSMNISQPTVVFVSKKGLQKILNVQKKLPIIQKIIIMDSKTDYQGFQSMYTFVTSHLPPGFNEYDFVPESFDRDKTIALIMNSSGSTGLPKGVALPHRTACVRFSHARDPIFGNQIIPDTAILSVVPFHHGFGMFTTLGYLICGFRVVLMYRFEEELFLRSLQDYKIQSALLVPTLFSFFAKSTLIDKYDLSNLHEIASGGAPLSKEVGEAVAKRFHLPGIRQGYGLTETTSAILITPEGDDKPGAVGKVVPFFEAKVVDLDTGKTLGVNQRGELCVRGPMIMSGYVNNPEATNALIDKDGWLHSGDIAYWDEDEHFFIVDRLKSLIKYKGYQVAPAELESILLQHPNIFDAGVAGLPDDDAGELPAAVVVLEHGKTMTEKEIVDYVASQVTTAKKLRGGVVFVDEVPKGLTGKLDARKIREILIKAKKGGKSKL
Sequence of Cytochrome P450 2C19 (P33261 whole entry): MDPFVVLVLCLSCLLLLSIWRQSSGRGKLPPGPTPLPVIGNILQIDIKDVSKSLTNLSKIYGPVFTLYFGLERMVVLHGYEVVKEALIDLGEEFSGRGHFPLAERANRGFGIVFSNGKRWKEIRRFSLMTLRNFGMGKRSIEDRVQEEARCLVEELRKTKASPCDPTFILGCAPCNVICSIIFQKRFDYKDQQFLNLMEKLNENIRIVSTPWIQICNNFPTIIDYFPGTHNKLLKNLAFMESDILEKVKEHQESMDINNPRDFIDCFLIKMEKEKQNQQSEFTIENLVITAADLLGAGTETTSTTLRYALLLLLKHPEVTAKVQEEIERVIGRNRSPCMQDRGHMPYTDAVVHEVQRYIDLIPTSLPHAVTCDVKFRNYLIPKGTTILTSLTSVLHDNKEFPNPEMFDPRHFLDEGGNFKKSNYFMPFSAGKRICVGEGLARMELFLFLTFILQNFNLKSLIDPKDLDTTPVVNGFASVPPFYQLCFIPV

Cc1ccc(C(=O)c2cc([N+](=O)[O-])ccc2N2CCOCC2)cc1
EC50 [1]: 7.18 µM (active)
EC50 [2]: 3.32 µM (inconclusive)
EC50 [3]: 7.57 µM (active)
EC50 [4]: 1.73 µM (active)
EC50 [5]: 2.27 µM (active)
EC50 [6]: 5.09 µM (active)
EC50 [7]: 36.1 µM (inconclusive)

COc1ccc(CCNC(=O)CSc2nc(-c3ccc(OC)c(OC)c3)ccc2C#N)cc1
EC50 [8]: > 350 µM (not active)
EC50 [9]: > 350 µM (not active)

O=[N+]([O-])c1cc(CN2CCCC2)ccc1Sc1ccc(Cl)cc1
IC50 [10]: 17.9 µM (active)
EC50 [11]: 9.06 µM (active)
EC50 [12]: 232 nM (active)

Cc1cccc2[nH]c3c(N4CC=C(c5ccc(F)cc5)CC4)ncnc3c12
AC50 [13]: 6.48 µM (active)
EC50 [14]: 7.98 µM (active)
EC50 [15]: > 150 µM (not active)
EC50 [16]: 2.84 µM (active)

Cc1nc(C(=O)Nc2ccc(Cl)cc2Cl)nn1-c1cc(OC(C)C)c(Cl)cc1Cl
EC50 [8]: > 350 µM (not active)
AC50 [17]: 7.08 µM (inconclusive)
EC50 [9]: > 350 µM (not active)

O=C(NCc1ccco1)c1cc(-c2cccs2)on1
EC50 [8]: 150 µM (active)
EC50 [9]: > 350 µM (not active)

COc1ccccc1C(c1nnnn1CC1CCCO1)N1CCC(C(N)=O)CC1 (stereo not drawn)
EC50 [8]: > 350 µM (not active)
EC50 [9]: > 350 µM (not active)

O=C(CC1SC(N2CCCC2)=NC1=O)Nc1ccc(C(=O)Nc2ncccc2O)cc1 (stereo not drawn)
EC50 [18]: 12.3 µM (active)
EC50 [19]: 11.1 µM (active)
EC50 [8]: 40.5 µM (active)
EC50 [20]: 16.5 µM (active)
EC50 [9]: > 350 µM (not active)

COc1ccc(C(=O)Nc2ccc(N3CCCC3)cc2)cc1OC
EC50 [21]: 1.45 µM (active)
EC50 [2]: > 150 µM (not active)
EC50 [5]: 11.2 µM (active)
EC50 [6]: 14.9 µM (active)
EC50 [22]: 1.03 µM (active)
EC50 [7]: 12.9 µM (active)

Cc1ccc(N=C(S)Nc2ccc(C(C)C)cc2)cc1S(=O)(=O)N1CCCCCC1
AC50 [13]: 2.1 µM (active)
EC50 [14]: > 150 µM (not active)
EC50 [15]: > 150 µM (not active)
EC50 [16]: 13.2 µM (active)

CCCNc1c(F)c(F)c2c(C)c3ccccc3nc2c1F
IC50 [10]: > 100 µM (inactive)
AC50 [23]: 25.1 µM (inconclusive)
EC50 [24]: > 300 µM (inconclusive)
EC50 [25]: 1.97 µM (active)

COC(=O)c1ccc(COc2ccccc2/C=C(\C#N)C(=O)Nc2c(C)cccc2C)cc1
AC50 [26]: 28.4 µM (active)
AC50 [13]: 2.46 µM (active)

COc1ccc(-c2cc(C(=O)OCC(=O)c3cccc([N+](=O)[O-])c3)c3cc(C)ccc3n2)cc1
EC50 [2]: > 150 µM (not active)
EC50 [5]: > 150 µM (not active)
EC50 [6]: > 150 µM (not active)
EC50 [7]: > 150 µM (not active)

Clc1ccc2oc(-c3ccccn3)nc2c1
IC50 [10]: 35.9 µM (active)

C(=C1c2ccccc2-c2ccccc21)c1ccccn1
IC50 [10]: 59.4 µM (inactive)

O=c1c2ccccc2oc2ccc(C#CC3(O)CCCCC3)cc12
AC50 [13]: 6.5 µM (active)

COc1cccc(/C=N/Nc2nc3ccccc3n3cnnc23)c1
EC50 [1]: > 120 µM (not active)
EC50 [3]: > 120 µM (not active)
EC50 [4]: 15.6 µM (active)
EC50 [8]: > 350 µM (not active)
EC50 [9]: 191 µM (active)
IC50 [27]: > 79 µM (inactive)

Cc1ccc(/C=N/NC(=O)COc2ccccc2-c2ccccc2)cc1
EC50 [2]: 0.435 µM (inconclusive)
EC50 [5]: 0.657 µM (active)
AC50 [28]: 770 nM (active)
EC50 [6]: 0.643 µM (inconclusive)
EC50 [7]: 0.605 µM (inconclusive)

O=C(COc1ccc(-c2ccccc2)cc1)N/N=C/c1cc(O)ccc1Br
AC50 [13]: 4.31 µM (active)
EC50 [14]: 4.98 µM (active)
EC50 [15]: 5.71 µM (active)
EC50 [16]: 2.51 µM (active)

O=C(CCCOc1ccc(Cl)cc1Cl)N/N=C/c1ccccc1O
EC50 [8]: 11.8 µM (active)
EC50 [9]: > 350 µM (not active)
